# Entries after “also recorded” stand apart in the source; their conditions may differ.
# Key:
# Type in all cases: cell-based
# [1] = tested on: human cortical brain organoids; test: Whole-mount immunostaining of human cortical brain organoids (p62, poly-ubiquitin)
# Procedure: Whole-Mount Immunostaining of Human Cortical Brain Organoids. Similar to the above-referenced procedures described for Drosophila tissues, human cortical brain organoids were immunostained with the following modifications: fixation and washes were done with 0.4% TRITON⋅ X-100; fixation was carried out for 50 minutes at room temperature; and organoids were blocked for >1 hour with PBS with 0.4% TRITON X-100 and 5% bovine serum albumin (BSA) before incubation with primary antibodies.
# (§1) Drug Treatment of Human Cortical Brain Organoids. An additional 0.5 mL of culture medium was added to reach the final amount of 1 mL with 0, 3, 5, 10, 20, 40, or 80 mg of maltose per mL, or with 10, 20, 40 μL of porcine alpha-Amylase (MP Biomedicals) per mL, as indicated. After culturing at 37° C. for 3 days, the organoids were kept for 7 hours at 41.5° C. for heat shock, or at 37° C. (control). Subsequently, the organoids were collected and snap frozen. The organoids were then processed as described above for the western blot analysis of detergent-soluble and detergent-insoluble fractions.
# Whole-mount immunostaining of organoids was carried out following similar procedures as described above for Drosophila brains and retinas, with anti-poly-ubiquitin (FK2; Enzo Life Sciences) and anti-p62/SQSTM1 antibodies (Cell Signaling Technologies). […]
# [2] = tested on: human cortical brain organoids; test: RNA-sequencing of human cortical brain organoids
# Procedure: RNA-Sequencing of Human Cortical Brain Organoids. RNA sequencing libraries for each sample were prepared with 1 μg total RNA using the Illumina TRUSEQ® RNA Sample Prep v2 Kit per the manufacturer's instructions, and sequencing was completed on the Illumina HiSeq 2000. The 100 bp paired-end reads were trimmed, filtered against quality (Phred-like Q20 or greater) and length (50 bp or longer), and aligned to a human reference sequence GRCh38 (UCSC hg38), using CLC Genomics Workbench v12.0.1 (Qiagen). For gene expression comparisons, the TPM (transcript per million) counts were obtained from the RNA-Seq Analysis tool. A total of 19749 genes with TPM greater than one in at least one sample were in the principal component analysis (PCA) and the gene expression analysis was performed using the non-parametric ANOVA using the Kruskal-Wallis and Dunn's tests on log-transformed TPM counts between three replicates of each experimental group, implemented in Partek Genomics Suite v7.0 software (Partek Inc.).
# as §1
# [3] = tested on: human cortical brain organoids; test: Multielectrode array recording of human cortical brain organoids
# Procedure: Multielectrode Array Recording of Human Cortical Brain Organoids. Spontaneous neuronal activity of cortical organoids was recorded on the Axion Maestro Edge multielectrode array system. Two different methods for plating and recording were optimized from two-month old and three-month old organoids, to ensure maximum contact with electrodes. Method 1 (Two-month old cortical organoids; Maltose treatment): Growth factor reduced-cell culture matrix sold under the tradename […]® (Corning) was diluted 1:3 in chilled media containing BrainPhys and 10% ES-FBS and kept on ice. D60 cortical organoids were first sliced in half using a pair of fine tweezers. Each half was then plated onto one well of a 24-well Cytoview plate (Axion Biosystems), where each well contained a grid of 16 electrodes. After placing the organoid slice onto a dry and empty well using a sterile flat spatula, 15 μL of the chilled and diluted cell culture matrix sold under the tradename […]® was added onto the slice. A P10 tip was used to position the slice to the center of the well over the grid of electrodes. Three such plates were prepared. The plates were incubated at 37° C. for 3 hours for the cell culture matrix to solidify over the organoid slices. After 3 hours, 500 μL of BrainPhys media supplemented with 100× N2 supplement, 50× B27 supplement without Vitamin A, 10 ng/ml BDNF and 10 ng/ml GDNF were added slowly to each well. Every three days, 300 μL media in each well was replaced with fresh media three days and six days after plating. Seven days after plating, the plates were treated with either control or maltose containing media; all treatment conditions were included in each of the four plates. Three days after treatment, spontaneous activity was recorded from each plate. The plates were then subjected to heat shock for 7 hours at 41.5° C. Spontaneous activity in each plate was recorded again after the heat shock. This recording was repeated after 17 hours of recovery and after 43 hours of recovery. Data was analyzed using the Neural Metric tool (Axion Biosystems).
# [4] = after heat shock, compared to control-treated organoids
structure (smiles),measurement,setting,value
OC[C@H]1O[C@H](O[C@H]2[C@H](O)[C@@H](O)C(O)O[C@@H]2CO)[C@H](O)[C@@H](O)[C@@H]1O (mixture of isomers) [maltose],p62 and ubiquitin immunoreactivity,"[1]; heat-shocked organoids, compared to controls",significantly decreased
same,levels of p62 and poly-ubiquitinated proteins (immunostaining),"[1]; organoids, control conditions (no heat shock)",no change
same,"expression of gene clusters involved in protein quality control (proteasome components, proteases/peptidases)",[2]; human cortical brain organoids,promoted the expression
same,gene expression changes induced by heat shock (RNA-seq),[2]; human cortical brain organoids,prevented some of the gene expression changes
same,mRNA and proteins levels of CRYA (a-crystallin),[2]; human cortical organoids,increased
same,bursts,[3]; [4],more bursts
same,number of active electrodes,[3]; [4],higher number of active electrodes
same,number of bursting electrodes,[3]; [4],higher number of bursting electrodes
same,number of spikes,[3]; [4],higher number of spikes
same,"neuronal activity (number of active electrodes, bursting electrodes, network bursts)",[3]; immediately after and at 17 hours and 43 hours after heat shock,significantly preserved; also recorded: higher neuronal activity
same,levels of maltose effective in preserving neuronal activity,[3]; organoids after heat shock,≤ 5 mg/mL
same,"neuronal activity (number of active electrodes, bursting electrodes, network bursts)",[3]; steady state / pre-heat shock,not modulated

# Reference: patent US20230310559A1, “Use of Amylase or Maltose to Treat or Prevent Neurodegeneration” (St. Jude Children's Research Hospital, Inc., priority 2020, published 2023)
